Data on 2 molecules can be found in patent US8283373B2, “Inhibitors of cytosolic phospholipase A2” (Pfizer Inc., priority 2005, dated 2012).

Experiment [1] concerns experimental autoimmune encephalomyelitis (EAE). Nature of the experiment: Experimental autoimmune encephalomyelitis (EAE) model of multiple sclerosis. In kind it is in vivo, mouse. How it is done:
Six groups of B6 mice were immunized with MOG/CFA and injected with pertussis toxin to induce experimental autoimmune encephalomyelitis (EAE), an animal model of Multiple sclerosis. Three groups of mice were treated with vehicle, 4-{3-[1-benzhydryl-5-chloro-2-(2-{[(2,6-dimethylbenzyl)sulfonyl]amino}ethyl)-1H-indol-3-yl]propyl}benzoic acid (Compound A), or 4-{2-[1-benzhydryl-5-chloro-2-(2-{[(3,4-dichlorobenzyl)sulfonyl]amino}-ethyl)-1H-indol-3-yl]ethoxy}benzoic acid (Compound B) from the day of Immunization (orally, 100 mg/kg, twice/day). Another three groups of mice were treated with vehicle, Compound A or Compound B starting on the day of EAE onset (day 15) (orally, 100 mg/kg, twice/day). […] The results are shown in the Table below, wherein mean clinical score is a mean of clinical evaluation of each animal for that particular day.
Animals are Scored as Follows:
• 0—no clinical signs of EAE (no paralysis) • 1—paralysis of tail • 2—paralysis of tail and partial hind leg paralysis • 3—paralysis of tail and complete hind leg paralysis • 4—paralysis of tail, complete hind leg paralysis and a partial front leg paralysis • 5—moribund animal (all four limbs paralyzed, lack of responsiveness, these mice were immediately euthanized).
In addition, the compounds of Examples 14 and 25 were also found to be efficacious in the mouse experimental autoimmune encephalomyelitis (EAE) model of multiple sclerosis. As shown by the data in the Table below, these compounds led to a delayed onset of disease and reduced severity of disease when administered orally in doses as low as 2.5 mg/kg.

Experiment [2] has as its system primary dopaminergic neurons. The experiment can be described thus: MPP+ exposure in dopaminergic neurons. In kind it is cell-based, rat. The settings on record: 10 μM MPP+ 60 minutes, control 100, MPP+ alone 56.6. How it is done: Primary dopaminergic neurons were isolated from E15 rat embryos as described in Pong K., et al., (1997) J. Neurochem. 69 986-994. Briefly, the ventral mesencephalon was isolated and tissue was pooled in ice-cold phosphate buffer saline (PBS) without Ca^2+ and Mg^2+. The tissue was transferred to an enzymatic dissociation media containing 20 IU/ml papain in Earle's balanced salt solution (Worthington Biochemical, Freehold, N.J.) and incubated for 30 minutes at 37° C. After enzymatic dissociation, the papain solution was aspirated and the tissue mechanically triturated with a fire-polished Pasteur pipette in complete media [Neurobasal Medium with B-27 supplement (Gibco, Grand Island, N.Y.), penicillin/streptomycin, aphidicolin, glutamate] containing 2,000 IU/ml DNase and 10 mg/ml ovomucoid protease inhibitor. Single-cell suspensions in complete media were plated on pre-coated poly-L-ornithine/laminin 24-well plates (Becton-Dickinson, Bedford, Mass.) at a density of 5.0×10^5 cells/well. Cells were maintained for one week prior to experimentation.
Cultures were exposed to 10 μM MPP^+ for 60 minutes. After the exposure, fresh media was exchanged and fresh compound was added. Dopaminergic neuron viability was determined 24 hours later by measuring ^3H-dopamine uptake as described in Pong et al., 1997, supra.

Experiment [3] relates to OVA-induced pulmonary inflammation. The experiment can be described thus: Rat antigen induced pulmonary inflammation model. In kind it is in vivo. How it is done:
The efficacy of the compound of Example 10 was evaluated in a Brown Norway rat model in which ovalbumin (OVA)-sensitized animals were challenged via the airways with an aerosol of ovalbumin (OVA) on days 1 and 2. OVA sensitized rats were challenged via aerosol on day 1 and day 2. The compound of Example 10 was administered at 30 mg/kg PO BID 1 hour prior to challenge and 10 hours after challenge over the 2 day challenge period. Dexamethasone was administered at 3 mg/kg IP 1 hour prior to challenge on day 1 and day 2. Animals were sacrificed on day 3 and bronchoalveolar cavities ravaged for analysis of cellular influx.

The test system of experiment [4] is collagen-induced arthritis. Nature of the experiment: Collagen-induced arthritis (CIA) model. In kind it is in vivo, mouse. The procedure: The compound of Example 10 was tested in the mouse CIA model, which has many immunologic and pathologic similarities to human rheumatoid arthritis (See Trentham, D. E., et al., supra). Arthritis was induced in DBA/1LacJ mice by intradermal injection of an emulsion of bovine type II collagen and CFA followed by a boost with an intradermal injection of bovine type II collagen emulsified in incomplete Freund's Adjuvant 21 days after the initial immunization. […] At that point animals were randomly assigned to treatment groups and administered the compound of Example 10 (100 mg/kg) PO BID for 28 days. Control groups received celecoxib, vehicle alone or were left untreated. All animals were scored daily in a blinded fashion for visual signs of disease symptoms.
The mean scores of the group treated with the compound of Example 10 were compared to the vehicle-control group values using the Student's t-test.
After completion of the experiments, paws were processed for histology. Two board certified veterinary pathologist evaluated the slides in a blinded fashion. Each paw was assigned a numerical score for both arthritis severity and the general number of joints affected.

Entries after “also recorded” stand apart in the source; their conditions may differ.

As to `Cc1cccc(C)c1CS(=O)(=O)NCCc1c(CCCc2ccc(C(=O)O)cc2)c2cc(Cl)ccc2n1C(c1ccccc1)c1ccccc1` [Compound A, 4-{3-[1-benzhydryl-5-chloro-2-(2-{[(2,6-dimethylbenzyl)sulfonyl]amino}ethyl)-1H-indol-3-yl]propyl}benzoic acid], the mean clinical score in experiment [1] (100 mg/kg orally twice/day from EAE onset (day 15), day 11 after immunization) was 0; in experiment [1] (100 mg/kg orally twice/day from EAE onset (day 15), day 12 after immunization), 0; in experiment [1] (100 mg/kg orally twice/day from EAE onset (day 15), day 13 after immunization), 0; in experiment [1] (100 mg/kg orally twice/day from EAE onset (day 15), day 14 after immunization) it was 0; in experiment [1] (100 mg/kg orally twice/day from EAE onset (day 15), day 15 after immunization), 0.33; in experiment [1] (100 mg/kg orally twice/day from EAE onset (day 15), day 16 after immunization), 0.60. For the same molecule, the mean clinical score in experiment [1] (100 mg/kg orally twice/day from EAE onset (day 15), day 17 after immunization) was determined as 0.80; in experiment [1] (100 mg/kg orally twice/day from EAE onset (day 15), day 18 after immunization), 1.03; in experiment [1] (100 mg/kg orally twice/day from EAE onset (day 15), day 19 after immunization) it was 1.13; in experiment [1] (100 mg/kg orally twice/day from EAE onset (day 15), day 20 after immunization) it was 1.50; in experiment [1] (100 mg/kg orally twice/day from EAE onset (day 15), day 21 after immunization) it was 1.57; in experiment [1] (100 mg/kg orally twice/day from EAE onset (day 15), day 22 after immunization), 1.60. Besides, the mean clinical score came to 1.37 in experiment [1] (100 mg/kg orally twice/day from EAE onset (day 15), day 23 after immunization); 1.43 in experiment [1] (100 mg/kg orally twice/day from EAE onset (day 15), day 24 after immunization); 1.23 in experiment [1] (100 mg/kg orally twice/day from EAE onset (day 15), day 25 after immunization); 0.87 in experiment [1] (100 mg/kg orally twice/day from EAE onset (day 15), day 26 after immunization); 0.87 in experiment [1] (100 mg/kg orally twice/day from EAE onset (day 15), day 27 after immunization); 0 in experiment [1] (100 mg/kg orally twice/day from day of immunization (Day 1), day 11 after immunization). Besides, the mean clinical score in experiment [1] (100 mg/kg orally twice/day from day of immunization (Day 1), day 12 after immunization) was found to be 0; in experiment [1] (100 mg/kg orally twice/day from day of immunization (Day 1), day 13 after immunization) it was 0; in experiment [1] (100 mg/kg orally twice/day from day of immunization (Day 1), day 14 after immunization) it was 0; in experiment [1] (100 mg/kg orally twice/day from day of immunization (Day 1), day 15 after immunization), 0; in experiment [1] (100 mg/kg orally twice/day from day of immunization (Day 1), day 16 after immunization), 0; in experiment [1] (100 mg/kg orally twice/day from day of immunization (Day 1), day 17 after immunization), 0. Further, the mean clinical score came out at 0 in experiment [1] (100 mg/kg orally twice/day from day of immunization (Day 1), day 18 after immunization); 0 in experiment [1] (100 mg/kg orally twice/day from day of immunization (Day 1), day 19 after immunization); 0 in experiment [1] (100 mg/kg orally twice/day from day of immunization (Day 1), day 20 after immunization); 0.06 in experiment [1] (100 mg/kg orally twice/day from day of immunization (Day 1), day 21 after immunization); 0.09 in experiment [1] (100 mg/kg orally twice/day from day of immunization (Day 1), day 22 after immunization); 0.16 in experiment [1] (100 mg/kg orally twice/day from day of immunization (Day 1), day 23 after immunization). For the same molecule, the mean clinical score was found to be 0.19 in experiment [1] (100 mg/kg orally twice/day from day of immunization (Day 1), day 24 after immunization); 0.25 in experiment [1] (100 mg/kg orally twice/day from day of immunization (Day 1), day 25 after immunization); 0.28 in experiment [1] (100 mg/kg orally twice/day from day of immunization (Day 1), day 26 after immunization); 0.38 in experiment [1] (100 mg/kg orally twice/day from day of immunization (Day 1), day 27 after immunization). In addition, the “prevention of EAE / reduction of clinical severity” value in experiment [1] (administered from the time of immunization, or in mice with or close to EAE) was “can prevent EAE”. Also, the “dopaminergic neuron viability (3H-dopamine uptake), Avg.” value worked out at 76.9 in experiment [2] (0.3 μM), 83.4 in experiment [2] (1 μM), 78.8 in experiment [2] (3 μM) and 81.1 in experiment [2] (10 μM).

Regarding `O=C(O)c1ccc(CCCc2c(CCNS(=O)(=O)Cc3ccccc3C(F)(F)F)n(C(c3ccccc3)c3ccccc3)c3ccc(Cl)cc23)cc1` [Example 10, 4-(3-{5-chloro-1-(diphenylmethyl)-2-[2-({[2-(trifluoromethyl)benzyl]sulfonyl}amino)ethyl]-1H-indol-3-yl}propyl)benzoic acid], in experiment [3] (30 mg/kg PO BID), the “influx of lymphocytes or neutrophils” value is “no significant effect” and the “total numbers of inflammatory cells within the BALF” value is “statistically significantly attenuated”. The “Bronchoalveolar lavage fluid (BALF) eosinophil influx” value in experiment [3] (30 mg/kg PO BID over 2 day challenge, 8 out of 8 independent studies) is “statistically significantly inhibited”. Further, in experiment [4] (100 mg/kg BID), the “group mean severity scores (paw histology)” value is on record as “lowest group mean severity scores” and the “percentage of unaffected (grade 0) paws (histology)” value is listed as “highest percentage of unaffected (grade 0) paws”. In addition, the “number of animals without disease symptoms” value in experiment [4] (100 mg/kg PO BID) is reported as “greatest”. Also, the “disease severity scores vs vehicle control” value in experiment [4] (100 mg/kg PO BID for 28 days, semi-therapeutic, from day 10) is given as “statistically significant decrease; also recorded: significant reduction of disease”. The “average severity grade (histology), pathologist 1” value in experiment [4] (100 mg/kg, vehicle 2.1) was 0.9. Further, the “average severity grade (histology), pathologist 2” value in experiment [4] (100 mg/kg, vehicle 3.0) is reported as 2.1.
